Reference: patent publication US8088727B2, “Method for reducing the risk, lessening the symptom, or delaying the onset of insulin resistance by administering SS-31” (Cornell University, priority 2008, dated 2012)
Square brackets hold non-standard residues; d marks the D form. Ends that are not written are not given here. Peptide text beside a SMILES is read from it. Dmt = Cc1cc(O)cc(C)c1C[C@H](N)C(=O)O

Experiments:
[1] = tested on: several mammalian cell types; conditions: several mammalian cell types (Zhao et al. 2003); cited from earlier work
[2] = tested on: skeletal muscle mitochondrial H2O2 emission of high fat fed rats; assay: Mitochondrial H2O2 emission in permeabilized fibers from high fat fed rats given SS-31; format: in vivo, rat; conditions: for increase in mitochondrial oxidant emitting potential: high fat diet (60%) six weeks
Excerpt: (§1) Next, rats were placed on a high fat diet (60%) for six weeks with or without daily administration of SS-31.

[3] = tested on: animal models of Parkinson's and amyotrophic lateral sclerosis disease; conditions: animal models of Parkinson's and amyotrophic lateral sclerosis disease (Petri et al. 2006; Szeto et al. 2006); cited from earlier work
[4] = tested on: high fat diet-induced insulin resistance; assay: Oral glucose tolerance test after six week high fat diet; format: in vivo, rat
Method: To determine whether mitochondrial-derived changes in intracellular redox environment may be linked to the etiology of high fat diet-induced insulin resistance, oral glucose tolerance tests were performed in rats after the six week high fat diet. On the day of experiments, food was removed 10 hr prior to administration of a 2 g/kg glucose solution via gavage. Glucose levels were determined on whole blood samples (Lifescan, Milpitas, Calif.). Serum insulin levels were determined via a rat/mouse ELISA kit (Linco Research, St. Charles, Mo.). Fasting data were used to determine homeostatic model assessment (HOMA)-calculated as fasting insulin (μU/ml) x fasting glucose (mM)/22.5.

[5] = tested on: intracellular redox environment in skeletal muscle; assay: Total glutathione and GSH/GSSG ratio in skeletal muscle of high fat fed rats; format: in vivo, rat
Method: Protein homogenates were prepared by homogenizing 100 mg of powered frozen muscle in a buffer containing in mM: 10 Tris, 1 EDTA, 1 EGTA, 2 NaOrthovanadate, 2 NaPyrophosphate, 5 NaF, protease inhibitor cocktail (Complete) at pH 7.2. After homogenization, 1% Triton X-100 was added to the protein suspension, cotexed and allowed to sit on ice for 5 minutes. The tubes were then spun at 10,000 rpm for 10 minutes to pellet the insoluble debris. For GSSG measurement, tissue was homogenized in a solution containing 20 mM Methyl-2-vinylpyridinium triflate to scavenge all reduced thiols in the sample. Total GSH and GSSG were then measured using the reagents and calibration set provided by the GSH/GSSG assay (Oxis Research) according to the manufacturer's instructions, with small modifications as needed.
To establish a link between the increased mitochondrial oxidant emission brought about by high fat diet and its effect on overall redox environment of skeletal muscle, both GSH and GSSG were measured in skeletal muscle of chow fed and high fat fed rats under two conditions; after a 10 h fast and 1 h after administration of a standard glucose load (oral gavage, 10 h fasted). […]

[6] = rat, in vivo
Excerpt: as §1

[7] = tested on: hearts subjected to myocardial stunning; conditions: hearts subjected to myocardial stunning (Zhao et al. 2004); cited from earlier work
fatty (fa/fa) Zucker rat = conditions: SS-31 1.0-5.0 mg/kg i.p. or oral, approximately 6 weeks
Method: Measured outcomes include body weight, fasting glucose/insulin/free fatty acid, glucose tolerance (OGTT), in vitro muscle insulin sensitivity (incubation), markers of insulin signaling (Akt-P, IRS-P), mitochondrial function studies on permeabilized fibers (respiration, H2O2 emission), markers of intracellular oxidative stress (lipid peroxidation, GSH/GSSG ratio, aconitase activity) and mitochondrial enzyme activity. […] Successful prevention of insulin resistance by the aromatic-cationic peptides of the invention is indicated by a reduction in one or more of the markers associated with insulin resistance or mitochondrial dysfunction enumerated above.
Measured outcomes include body weight, fasting glucose/insulin/free fatty acid, glucose tolerance (OGTT), in vitro muscle insulin sensitivity (incubation), markers of insulin signaling (Akt-P, IRS-P), mitochondrial function studies on permeabilized fibers (respiration, H2O2 emission), markers of intracellular oxidative stress (lipid peroxidation, GSH/GSSG ratio, aconitase activity) and mitochondrial enzyme activity. […] Successful treatment of insulin resistance by the aromatic-cationic peptides of the invention is indicated by a reduction in one or more of the markers associated with insulin resistance or mitochondrial dysfunction enumerated above.

[8] = tested on: skeletal muscle mitochondrial respiration of high fat fed rats; assay: Mitochondrial respiration in permeabilized fibers from high fat fed rats given SS-31; format: in vivo, rat
Excerpt: as §1

mu-opioid receptor = mu-opioid receptor (Homo sapiens, UniProt P35372); conditions: cited from earlier work
Akt = Akt phosphorylation in skeletal muscle after oral glucose load; format: in vivo, rat; conditions: skeletal muscle of high fat fed rats, 1 h after oral glucose load (FIGS. 4E and 4F)
Method: Increased homeostatic model assessment (HOMA, FIG. 4C), and greater area under the curves for both blood glucose and insulin (FIG. 4D) confirmed the development of insulin resistance in high fat fed rats. […] To further assess insulin sensitivity, the phosphorylation state of the insulin signaling protein Akt in skeletal muscle from animals was measured after a 10 h fast or 1 h after receiving an oral glucose load. In response to glucose ingestion, Akt phosphorylation increased ˜5-fold in skeletal muscle of chow-fed controls but was unchanged in high fat fed rats (FIGS. 4E and 4F), confirming the presence of insulin resistance at the level of insulin signaling.

[9] = tested on: mitochondrial H2O2 emission in permeabilized skeletal muscle fiber bundles; assay: Mitochondrial H2O2 emission in permeabilized skeletal muscle fiber bundles, SS-31 dose response in vitro; format: cell-based, rat; conditions: dose response curve in vitro (FIG. 3A), succinate-supported respiration
Method: Preparation of permeabilized muscle fiber bundles. Briefly, small portions (25 mg) of soleus, RG, and WG muscle were dissected and placed in ice-cold buffer X, containing 60 mM K-MES, 35 mM KCl, 7.23 mM K2 EGTA, 2.77 mM CaK2EGTA, 20 mM imidazole, 0.5 mM DTT, 20 mM taurine, 5.7 mM ATP, 15 mM PCr, and 6.56 mM MgCl2·6H2O (pH 7.1, 295 mosmol/kg H2O). The muscle was trimmed of connective tissue and cut down to fiber bundles (2×7 mm, 4-8 mg wet wt). With a pair of needle-tipped forceps under a dissecting microscope, fibers were gently separated from one another to maximize surface area of the fiber bundle, leaving only small regions of contact. […]
Mitochondrial respiration and H2O2 emission measurements. […] Mitochondrial H2O2 emission was measured at 30° C. during state 4 respiration in Buffer Z (10 μg/ml oligomycin) by continuously monitoring oxidation of Amplex Red using a Spex Fluoromax 3 (Jobin Yvon, Ltd.) spectrofluorometer with temperature control and magnetic stirring at >1000 rpm. […] After baseline fluorescence (reactants only) was established, the reaction was initiated by addition of a permeabilized fiber bundle to 300 μl of buffer Z containing 5 μM Amplex Red and 0.5 U/ml HRP, with succinate at […]. […] The rate of respiration is expressed as pmol·s^−1·mg dry weight^−1, and mitochondrial H2O2 emission expressed as pmol·min^−1·mg dry weight^−1. […]

pancreatic islet cells = pancreatic islet cells after transplantation (Thomas et al. 2005); cited from earlier work
[10] = tested on: mitochondrial inner membrane; conditions: while scavenging ROS; cited from earlier work

Chain of mu-opioid receptor (P35372 whole entry, species assumed): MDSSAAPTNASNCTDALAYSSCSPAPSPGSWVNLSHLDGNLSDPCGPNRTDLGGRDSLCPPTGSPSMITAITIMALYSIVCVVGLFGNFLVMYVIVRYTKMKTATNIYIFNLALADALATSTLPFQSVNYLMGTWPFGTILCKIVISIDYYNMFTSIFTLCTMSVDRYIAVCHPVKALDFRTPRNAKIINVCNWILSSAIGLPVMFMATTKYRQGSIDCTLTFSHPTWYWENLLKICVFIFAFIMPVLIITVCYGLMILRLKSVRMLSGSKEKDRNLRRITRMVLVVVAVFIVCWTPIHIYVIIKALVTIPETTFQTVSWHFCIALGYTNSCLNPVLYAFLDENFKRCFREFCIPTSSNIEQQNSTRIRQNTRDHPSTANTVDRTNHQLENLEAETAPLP

In the case of 2′,6′-Dmt-D-Arg-Phe-Lys-NH2 [SS-02], the “penetration of the plasma membrane” value [1] is given as “readily penetrates”.

In the case of Cc1cc(O)cc(C)c1C[C@H](NC(=O)[C@H](N)CCCNC(=N)N)C(=O)N[C@@H](CCCCN)C(=O)N[C@@H](Cc1ccccc1)C(N)=O [SS-31, D-Arg-2′6′Dmt-Lys-Phe-NH2] (H-[dR][Dmt]KF-NH2), the “reduction in mitochondrial H2O2 emission” value ([2]; dose response curve in vivo (FIG. 3B), succinate-supported respiration) is reported as “greater than 50%”, the “increase in mitochondrial oxidant emitting potential” value ([2]; palmitoyl-carnitine supported respiration, daily SS-31 (FIG. 3D)) is reported as “completely prevented” and the “increase in mitochondrial oxidant emitting potential” value ([2]; succinate supported respiration, daily SS-31 (FIG. 3C)) is reported as “completely prevented”. The ROS [3] was “effectively reduce ROS”, the “development of insulin resistance (HOMA, area under the curves for blood glucose and insulin)” value ([4]; high fat fed rats (FIGS. 4C and 4D)) was “completely blocked” and the “blood glucose response to the oral glucose challenge” value ([4]; high fat fed rats, 2 g/kg glucose by gavage (FIG. 4A)) was “normalized”. The “insulin response to the oral glucose challenge” value ([4]; high fat fed rats, 2 g/kg glucose by gavage (FIG. 4B)) was “normalized”, the GSH/GSSG ratio ([5]; high fat fed rats, 10 h fast and 1 h after glucose ingestion (FIG. 3H)) was “preserved the GSH/GSSG ratio near control levels” and the “reduction in total cellular glutathione content (GSHT)” value ([5]; high fat feeding with SS-31 treatment, skeletal muscle (FIG. 3G)) was ~30%. For the same compound, the weight gain [6] was “did not affect”, the ROS [7] was “effectively reduce ROS” and the “whole body and muscle insulin resistance” value (fatty (fa/fa) Zucker rat; Zucker rats (~12 weeks of age)) was “ameliorate or reduce”. For the same compound, the “development of whole body and muscle insulin resistance” value (fatty (fa/fa) Zucker rat; young Zucker rats (~3-4 weeks of age)) was “attenuate or prevent”, the “basal rate of respiration” value ([8]; palmitoyl-carnitine-supported, high fat fed rats (FIG. 3F)) was “not affected” and the “basal rate of respiration” value ([8]; pyruvate/malate-supported, high fat fed rats (FIG. 3E)) was “not affected”. For the same compound, the “mu-opioid receptor agonist activity” value (mu-opioid receptor) was “does not have mu-opioid receptor agonist activity”, the “Akt phosphorylation in response to glucose ingestion” value (Akt) was “completely preserved” and the “reduction in mitochondrial H2O2 emission” value [9] was “greater than 50%”. The ROS (pancreatic islet cells) was “effectively reduce ROS” and the “effect on membrane potential or respiratory control” value [10] was “without affecting”.

In the case of F[dR]FK-NH2 [SS-20], the “mu-opioid receptor agonist activity” value (mu-opioid receptor) is listed as “does not have mu-opioid receptor agonist activity”.

For Tyr-D-Arg-Phe-Lys-NH2 [SS-01], the “mu-opioid receptor agonist activity” value (mu-opioid receptor) is listed as “has mu-opioid receptor agonist activity”.
